Assay results taken from PubChem BioAssay AID248 (DTP/NCI, 2004).
Where “and” joins values, the source holds several entries; their conditions need not be identical. Identical values can stand only once. Inconclusive results and toxic doses are left out. No stated cut-off is given here; in the data, active means T/C of 150% or more; inactive means T/C below 125%.

Test system: L1210 leukemia ip in BDF1 mice, survival T/C
Assay: NCI In Vivo Anticancer Drug Screen. Data for tumor model L1210 Leukemia (intraperitoneal) in B6D2F1 (BDF1) mice
Settings: endpoint: mean survival time, higher = longer survival
Procedure, shortened: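 In this screen, tumor-bearing mice given compound are compared to those given vehicle, and their survival values are reported as a treated-to-control quotient.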

[1] = dose: 50.0 mg/kg/injection, schedule: Q01DX009 (ip), vehicle: saline with Tween-80
[2] = dose: 100.0 mg/kg/injection, schedule: Q01DX009 (ip), vehicle: saline with Tween-80
[3] = dose: 200.0 mg/kg/injection, schedule: Q01DX009 (ip), vehicle: saline with Tween-80
[4] = dose: 50.0 mg/kg/injection, schedule: Q01DX001 (ip), vehicle: carboxymethylcellulose (CMC)
[5] = dose: 100.0 mg/kg/injection, schedule: Q01DX001 (ip), vehicle: carboxymethylcellulose (CMC)
[6] = dose: 200.0 mg/kg/injection, schedule: Q01DX001 (ip), vehicle: carboxymethylcellulose (CMC)
[7] = dose: 400.0 mg/kg/injection, schedule: Q01DX001 (ip), vehicle: carboxymethylcellulose (CMC)
[8] = dose: 200.0 mg/kg/injection, schedule: Q04DX003 (ip), vehicle: saline
[9] = dose: 100.0 mg/kg/injection, schedule: Q01DX001 (ip), vehicle: saline
[10] = dose: 200.0 mg/kg/injection, schedule: Q01DX001 (ip), vehicle: saline
[11] = dose: 400.0 mg/kg/injection, schedule: Q01DX001 (ip), vehicle: saline
[12] = dose: 100.0 mg/kg/injection, schedule: Q01DX009 (ip), vehicle: other
[13] = dose: 100.0 mg/kg/injection, schedule: Q04DX003 (ip), vehicle: saline
[14] = dose: 100.0 mg/kg/injection, schedule: Q01DX009 (ip), vehicle: Klucel (hydroxypropylcellulose) (HPC)
[15] = dose: 200.0 mg/kg/injection, schedule: Q01DX009 (ip), vehicle: Klucel (hydroxypropylcellulose) (HPC)
[16] = dose: 400.0 mg/kg/injection, schedule: Q01DX009 (ip), vehicle: Klucel (hydroxypropylcellulose) (HPC)
[17] = dose: 400.0 mg/kg/injection, schedule: Q04DX003 (ip), vehicle: saline

Measured: T/C

CN(C)CSc1nc2ccccc2s1
inactive: [1] 93 % of control | [2] 89 % of control | [3] 93 % of control

CS/C(N)=N\N=C\c1ccccn1
inactive: dose: 12.5 mg/kg/injection, schedule: Q01DX001 (ip), vehicle: carboxymethylcellulose (CMC) 104 % of control | dose: 25.0 mg/kg/injection, schedule: Q01DX001 (ip), vehicle: carboxymethylcellulose (CMC) 103 % of control

CC12CC3CC(C)(C1)CC(Br)(C3)C2
inactive: [4] 104 % of control | [5] 101 % of control | [6] 113 % of control | [7] 107 % of control

CC/C(=C(\CC)c1ccc(OC)cc1)c1ccc(OC)cc1
inactive: [1] 100 % of control | [2] 89 % of control | [3] 89 % of control | [8] 87 % of control

Nc1ccccc1SC1CC(=O)N(c2ccc(Br)cc2)C1=O (stereo not given)
inactive: dose: 100.0 mg/kg/injection, schedule: Q04DX002 (ip), vehicle: gum acacia 95 % of control | dose: 200.0 mg/kg/injection, schedule: Q04DX002 (ip), vehicle: gum acacia 88 % of control | dose: 400.0 mg/kg/injection, schedule: Q04DX002 (ip), vehicle: gum acacia 95 % of control

CC(CO)(CO)N=Cc1cc(I)cc(I)c1O
inactive: [5] 93 % of control | [6] 98 % of control | [7] 95 % of control

COc1ccc(C=Nc2cccc(O)c2)cc1
inactive: [5] 95 % of control | [6] 95 % of control | [7] 92 % of control

CCOCCOC(=O)c1ccc(C(=N)OCC)cc1
inactive: [9] 90 % of control | [10] 90 % of control | [11] 86 % of control

CCNC(C)(C)C(SSSC(c1cccs1)C(C)(C)NCC)c1cccs1 (stereo not given)
inactive: dose: 25.0 mg/kg/injection, schedule: Q01DX009 (ip), vehicle: other 108 % of control | dose: 50.0 mg/kg/injection, schedule: Q01DX009 (ip), vehicle: other 103 % of control | [12] 97 % of control | [13] 98 % of control

CCCNC(=O)Oc1ccc(SC)cc1
inactive: dose: 100.0 mg/kg/injection, schedule: Q01DX001 (ip), vehicle: other 96 % of control | [12] 94 % of control and 99 % of control | dose: 100.0 mg/kg/injection, schedule: Q04DX002 (ip), vehicle: other 93 % of control and 97 % of control | dose: 100.0 mg/kg/injection, schedule: Q04DX002 (ip), vehicle: saline with Tween-80 100 % of control | dose: 100.0 mg/kg/injection, schedule: Q04DX003 (ip), vehicle: saline with Tween-80 107 % of control | dose: 200.0 mg/kg/injection, schedule: Q01DX001 (ip), vehicle: other 98 % of control | dose: 200.0 mg/kg/injection, schedule: Q01DX009 (ip), vehicle: other 103 % of control | dose: 200.0 mg/kg/injection, schedule: Q04DX002 (ip), vehicle: other 97 % of control and 103 % of control | dose: 200.0 mg/kg/injection, schedule: Q04DX002 (ip), vehicle: saline with Tween-80 113 % of control | dose: 200.0 mg/kg/injection, schedule: Q04DX003 (ip), vehicle: saline with Tween-80 105 % of control | dose: 400.0 mg/kg/injection, schedule: Q01DX009 (ip), vehicle: other 89 % of control | dose: 400.0 mg/kg/injection, schedule: Q04DX002 (ip), vehicle: other 108 % of control and 86 % of control | dose: 400.0 mg/kg/injection, schedule: Q04DX002 (ip), vehicle: saline with Tween-80 106 % of control | dose: 400.0 mg/kg/injection, schedule: Q04DX003 (ip), vehicle: saline with Tween-80 100 % of control

O=C1c2nc3ccccc3nc2C(=O)N1OS(=O)(=O)c1ccccc1
inactive: [14] 92 % of control | [15] 105 % of control | [16] 100 % of control

Cc1ccccc1NP1(=O)OCCCN1Cc1ccc(Cl)c(Cl)c1 (stereo not given)
inactive: [4] 98 % of control | [5] 98 % of control | [6] 98 % of control | [7] 93 % of control

CN1CCN(C(=O)CCCCCCCCC(Br)CBr)CC1 (stereo not given)
inactive: dose: 15.0 mg/kg/injection, schedule: Q01DX001 (ip), vehicle: saline 103 % of control

CC(C)=Cc1ccno1
inactive: [9] 100 % of control | [10] 100 % of control | [11] 100 % of control

CCOC(=O)N1Cc2cc3ccccc3nc2C1CC(=O)O (stereo not given)
inactive: [14] 104 % of control | dose: 100.0 mg/kg/injection, schedule: Q04DX003 (ip), vehicle: Klucel (hydroxypropylcellulose) (HPC) 105 % of control | [15] 98 % of control | dose: 200.0 mg/kg/injection, schedule: Q04DX003 (ip), vehicle: Klucel (hydroxypropylcellulose) (HPC) 88 % of control | [16] 102 % of control | dose: 400.0 mg/kg/injection, schedule: Q04DX003 (ip), vehicle: Klucel (hydroxypropylcellulose) (HPC) 96 % of control

O=C(O)CCCCCCCCC(=O)c1cc(O)ccc1O
inactive: dose: 100.0 mg/kg/injection, schedule: Q01DX001 (ip), vehicle: Klucel (hydroxypropylcellulose) (HPC) 94 % of control | dose: 200.0 mg/kg/injection, schedule: Q01DX001 (ip), vehicle: Klucel (hydroxypropylcellulose) (HPC) 94 % of control | dose: 400.0 mg/kg/injection, schedule: Q01DX001 (ip), vehicle: Klucel (hydroxypropylcellulose) (HPC) 106 % of control

OC/C(I)=C(I)\C(I)=C(\I)CO
inactive: dose: 25.0 mg/kg/injection, schedule: Q04DX002 (ip), vehicle: Klucel (hydroxypropylcellulose) (HPC) 90 % of control | dose: 50.0 mg/kg/injection, schedule: Q04DX002 (ip), vehicle: Klucel (hydroxypropylcellulose) (HPC) 90 % of control | dose: 100.0 mg/kg/injection, schedule: Q04DX002 (ip), vehicle: Klucel (hydroxypropylcellulose) (HPC) 94 % of control and 101 % of control

[Br][Pb]([c]1ccccc1)([c]1ccccc1)[c]1ccccc1
inactive: dose: 1.5 mg/kg/injection, schedule: Q01DX009 (ip), vehicle: saline 103 % of control | dose: 1.56 mg/kg/injection, schedule: Q04DX003 (ip), vehicle: acetone 93 % of control | dose: 3.12 mg/kg/injection, schedule: Q01DX009 (ip), vehicle: saline 100 % of control | dose: 3.12 mg/kg/injection, schedule: Q04DX003 (ip), vehicle: acetone 91 % of control | dose: 6.25 mg/kg/injection, schedule: Q01DX009 (ip), vehicle: saline 92 % of control | dose: 6.25 mg/kg/injection, schedule: Q04DX003 (ip), vehicle: acetone 88 % of control

CCOCCOCCCNCC(=O)N1CCN(C(=O)CNCCCOCCOCC)CC1
inactive: [4] 97 % of control | [5] 98 % of control | [6] 108 % of control | [7] 103 % of control

COC(=O)C(C)NC(=O)C1CSC(C)(C)N1C=O (stereo not given)
inactive: [13] 101 % of control | [8] 95 % of control | [17] 95 % of control

COc1ccc(N=NN(C(C)=O)c2ccccc2)cc1
inactive: [14] 111 % of control | [13] 102 % of control | [15] 110 % of control | [8] 111 % of control | [16] 96 % of control | [17] 123 % of control
